Target: L-lactate dehydrogenase B chain (Homo sapiens, UniProt P07195)
Sequence (P07195 whole entry): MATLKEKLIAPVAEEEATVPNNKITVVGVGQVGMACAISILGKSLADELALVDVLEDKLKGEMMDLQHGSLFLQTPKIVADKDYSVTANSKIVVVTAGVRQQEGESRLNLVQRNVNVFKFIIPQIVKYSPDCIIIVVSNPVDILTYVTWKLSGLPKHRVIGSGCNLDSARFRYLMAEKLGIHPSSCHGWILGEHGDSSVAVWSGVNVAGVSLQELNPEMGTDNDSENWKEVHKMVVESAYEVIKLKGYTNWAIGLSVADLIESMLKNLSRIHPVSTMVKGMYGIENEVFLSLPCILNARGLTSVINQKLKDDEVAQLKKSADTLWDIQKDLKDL
Description: inhibitory activity against Human Lactate Dehydrogenase (LDH-H)

| Ki | Structure (SMILES) |
| --- | --- |
| 49 µM | CCCc1c(O)c(O)c(C(=O)O)c2ccc(C)cc12 |
| 1 µM | CCCc1c(O)c(O)c(C(=O)O)c2cc(Cc3ccccc3)c(C)cc12 |
| 7 µM | Cc1cc2c(C(C)C)c(O)c(O)c(C(=O)O)c2cc1Cc1ccccc1 |

— ChEMBL document CHEMBL1131124, “Selective inhibitors of human lactate dehydrogenases and lactate dehydrogenase from the malarial parasite Plasmodium falciparum” (J Med Chem, 1998)
